Experimental data reported in patent US20240058315A1, “Pyridine and Pyrazine derivative for the Treatment of CF, COPD, and Bronchiectasis” (NOVARTIS AG, priority 2019, published 2024).
Entries after “also recorded” stand apart in the source; their conditions may differ.

What was measured:
ΔF508-CFTR = ΔF508-CFTR (Homo sapiens (Human), UniProt P13569, DEL508-508); test: CFTR potentiator assays (membrane potential, IonWorks Quattro, Ussing chamber ion transport); assay type: cell-based; conditions: CFTR EC50 in 'the data measurements described above'; which of the potentiator assays is not stated
Source text: CFTR activity can be quantified by measuring the transmembrane potential. The means for measuring the transmembrane potential in a biological system can employ a number of methods including electrophysiological and optical fluorescence-based membrane potential assays.
The optical membrane potential assay utilises a negatively charged potentiometric dye, such as the FLIPR membrane potential dye (FMP) (see Baxter D F, Kirk M, Garcia A F, Raimondi A, Holmqvist M H, Flint K K, Bojanic D, Distefano P S, Curtis R, Xie Y. ‘A novel membrane potential-sensitive fluorescent dye improves cell-based assays for ion channels.’ J Biomol Screen. 2002 February; 7(1):79-85) which when extracellular is bound to a quenching agent.
Upon cellular depolarisation the negatively charged dye redistributes to the intracellular compartment, unbinding from the membrane impermeant quench agent, yielding an increase in fluorescence. This change in fluorescence is proportional to the change in transmembrane potential which can result from the activity of CFTR. The changes in fluorescence can be monitored in real time by an appropriately equipped fluorescence detector such as the FLIPR (fluorometric imaging plate reader) in 96 or 384-well microtitre plates.
Chinese hamster ovary (CHO) cells stably expressing the AF508-CFTR channel were used for membrane potential experiments. Cells were maintained at 37° C. in 5% v/v CO2 at 100% humidity in Modified Eagles medium (MEM) supplemented with 8% v/v foetal calf serum, 100 μg/ml methotrexate and 100 U/ml penicillin/streptomycin. Cells were grown in 225 cm^2 tissue culture flasks. For membrane potential assays cells were seeded into 96 well plates at 40,000 cells per well, allowed to adhere and then maintained at 26° C. for 48 h to facilitate channel insertion.
The membrane potential screening assay utilised a low chloride ion containing extracellular solution (˜5 mM) combined with a double addition protocol. The first addition was of buffer with or without test compound followed 5 minutes later by an addition of forskolin (1-20 μM)—this protocol favours maximum chloride efflux in response to ΔF508-CFTR activation. The ΔF508-CFTR mediated chloride ion efflux leads to a membrane depolarisation which is optically monitored by the FMP dye.
Low chloride extracellular (mM): 120 Na-gluconate, 1.2 CaCl2), 3.3 KH2PO4, 0.8 K2HPO4, 1.2 MgCl2, 10.0 D-glucose, 20.0 HEPES, pH 7.4 with NaOH FMP dye: made up as per manufacturers' instructions in low chloride extracellular solution detailed above, at 10× final concentration, and stored as 1 mL aliquots at −20° C.
CFTR activity can also be quantified electrophysiologically using the whole-cell configuration of the patch clamp technique (Hamill et al Pflugers Archive 1981). This assay directly measures the currents associated with chloride flow through CFTR channels whilst either maintaining or adjusting the transmembrane voltage. This assay can use either single glass micropipettes or parallel planar arrays to measure CFTR activity from native or recombinant cell systems. Currents measured using parallel planar arrays can be quantified using an appropriately equipped instrument such as the IonWorks Quattro (Molecular Devices) or the Qpatch (Sophion). The Quattro system can measure CFTR currents from either a single cell per recording well (HT configuration) or alternatively from a population of 64 cells per well (Population Patch Clamp PPC) (Finkel A, Wittel A, Yang N, Handran S, Hughes J, Costantin J. ‘Population patch clamp improves data consistency and success rates in the measurement of ionic currents.’ J Biomol Screen. 2006 August; 11(5):488-96).
Chinese hamster ovary (CHO) cells stably expressing the ΔF508-CFTR channel were used for IonWorks Quattro experiments. […]

COPD patients [1] = test: Phase II study of Compound A in COPD patients: fibrinogen levels in blood; assay type: in vivo, human; parameters: fibrinogen change from baseline, mean / fibrinogen change from baseline, minimum / fibrinogen change from baseline, median / fibrinogen change from baseline, maximum: unit not given here; conditions: for fibrinogen change from baseline, maximum / fibrinogen change from baseline, mean / fibrinogen change from baseline, median / fibrinogen change from baseline, minimum: value in brackets
Procedure: (§1) Patients were randomized and stratified by smoking status (former vs current smokers). The double-blind placebo-controlled treatment period was 28 days (Day 1 to Day 28) and included visits on Days 1, 14 and 28. Eligible patients were randomized in a 2:1 ratio to receive 300 mg b.i.d. of Compound A or matching placebo for 28 consecutive days. Of note, the first 4 patients enrolled randomized in this study received 450 mg b.i.d. of Compound A or placebo, prior to an amendment reducing the dose and thereafter the dose was reduced to 300 mg b.i.d. of Compound A. The single-blind placebo-controlled follow-up period was 28 days. The follow-up period included a visit on Day 29 for key primary and secondary objective efficacy assessments, weekly follow-up contact via telephone, and an End-of-Study (EOS) visit on Day 56.
Blood samples were collected from patients for the analysis of fibrinogen.

COPD patients [2] = test: COPD PoC study (study 2): lung function (LCI, FEV1, spirometry); assay type: in vivo, human
Procedure: as §1

CFTR = test: COPD PoC study (study 2): sweat chloride; assay type: in vivo, human; conditions: Day 29, 300 mg bid 28 days, 90% CI −11.6, 1.25, p-value=0.091
Procedure: as §1

patients with CF = test: Clinical study in cystic fibrosis patients: lung function (FEV1); assay type: in vivo, human; conditions: two weeks of treatment, listed as Compound A
BCRP = BCRP (Homo sapiens (Human), UniProt Q9UNQ0); test: in vitro inhibition of BCRP; assay type: in vitro ADME
UGT2B7 = UGT2B7 (Homo sapiens (Human), UniProt P16662); test: in vitro inhibition of UGT2B7; assay type: in vitro ADME
[3] = BAS (baseline) visit, 300 mg bid group
[4] = SCR (screening) visit, 300 mg bid group

Sequence of ΔF508-CFTR (P13569 other isoform, or with tags, fused parts or gaps del F508-F508): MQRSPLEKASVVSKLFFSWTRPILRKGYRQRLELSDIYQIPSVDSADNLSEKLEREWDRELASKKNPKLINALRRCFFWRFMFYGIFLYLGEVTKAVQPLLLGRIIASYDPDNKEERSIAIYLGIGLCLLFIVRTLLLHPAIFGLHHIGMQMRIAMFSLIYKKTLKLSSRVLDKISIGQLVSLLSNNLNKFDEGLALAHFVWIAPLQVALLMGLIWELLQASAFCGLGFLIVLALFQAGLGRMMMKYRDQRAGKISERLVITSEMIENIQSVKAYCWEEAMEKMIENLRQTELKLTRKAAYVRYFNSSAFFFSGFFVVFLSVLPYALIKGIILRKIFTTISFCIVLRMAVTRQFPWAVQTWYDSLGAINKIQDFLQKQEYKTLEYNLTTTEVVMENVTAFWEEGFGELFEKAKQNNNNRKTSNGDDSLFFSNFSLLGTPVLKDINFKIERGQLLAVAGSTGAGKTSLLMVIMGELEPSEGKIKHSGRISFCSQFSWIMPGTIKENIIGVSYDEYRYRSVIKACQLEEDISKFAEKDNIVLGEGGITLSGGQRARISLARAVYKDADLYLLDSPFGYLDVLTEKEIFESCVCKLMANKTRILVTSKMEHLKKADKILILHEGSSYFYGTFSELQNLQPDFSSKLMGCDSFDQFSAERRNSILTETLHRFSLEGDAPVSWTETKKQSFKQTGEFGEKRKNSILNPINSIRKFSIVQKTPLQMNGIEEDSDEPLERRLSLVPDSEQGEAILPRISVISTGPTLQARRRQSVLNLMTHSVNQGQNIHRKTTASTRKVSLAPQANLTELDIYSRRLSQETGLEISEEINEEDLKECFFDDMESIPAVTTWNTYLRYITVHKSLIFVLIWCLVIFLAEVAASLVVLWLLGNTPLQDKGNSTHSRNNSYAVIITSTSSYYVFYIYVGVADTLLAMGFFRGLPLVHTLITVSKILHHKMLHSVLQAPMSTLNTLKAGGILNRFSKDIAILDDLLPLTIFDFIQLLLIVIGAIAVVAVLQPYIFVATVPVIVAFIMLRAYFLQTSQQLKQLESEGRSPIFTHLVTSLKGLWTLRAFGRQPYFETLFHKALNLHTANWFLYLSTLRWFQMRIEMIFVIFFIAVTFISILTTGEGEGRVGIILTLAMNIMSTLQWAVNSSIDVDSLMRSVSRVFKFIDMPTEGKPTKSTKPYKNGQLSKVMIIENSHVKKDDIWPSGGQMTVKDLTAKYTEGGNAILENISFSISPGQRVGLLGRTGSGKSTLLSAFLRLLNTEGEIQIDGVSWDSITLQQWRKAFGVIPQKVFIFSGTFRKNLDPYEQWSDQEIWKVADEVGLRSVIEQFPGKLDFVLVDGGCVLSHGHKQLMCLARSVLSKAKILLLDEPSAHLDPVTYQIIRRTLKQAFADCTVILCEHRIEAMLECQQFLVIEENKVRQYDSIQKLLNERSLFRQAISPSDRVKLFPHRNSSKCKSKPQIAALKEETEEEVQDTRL
Sequence of UGT2B7 (P16662 24-529): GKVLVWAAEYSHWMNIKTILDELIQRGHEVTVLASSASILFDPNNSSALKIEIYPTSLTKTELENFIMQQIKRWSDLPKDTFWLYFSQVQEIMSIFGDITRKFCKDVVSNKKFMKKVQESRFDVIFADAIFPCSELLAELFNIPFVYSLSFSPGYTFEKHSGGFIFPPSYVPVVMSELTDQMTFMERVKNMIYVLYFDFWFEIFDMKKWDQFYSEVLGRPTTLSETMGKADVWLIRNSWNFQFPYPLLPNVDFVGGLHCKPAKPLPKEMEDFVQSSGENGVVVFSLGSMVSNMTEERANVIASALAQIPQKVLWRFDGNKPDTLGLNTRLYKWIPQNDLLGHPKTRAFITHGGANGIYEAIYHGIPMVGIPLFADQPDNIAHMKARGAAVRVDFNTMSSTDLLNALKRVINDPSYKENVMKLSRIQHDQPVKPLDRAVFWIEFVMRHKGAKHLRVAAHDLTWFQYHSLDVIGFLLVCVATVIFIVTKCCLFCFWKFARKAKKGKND
Sequence of BCRP (Q9UNQ0 whole entry): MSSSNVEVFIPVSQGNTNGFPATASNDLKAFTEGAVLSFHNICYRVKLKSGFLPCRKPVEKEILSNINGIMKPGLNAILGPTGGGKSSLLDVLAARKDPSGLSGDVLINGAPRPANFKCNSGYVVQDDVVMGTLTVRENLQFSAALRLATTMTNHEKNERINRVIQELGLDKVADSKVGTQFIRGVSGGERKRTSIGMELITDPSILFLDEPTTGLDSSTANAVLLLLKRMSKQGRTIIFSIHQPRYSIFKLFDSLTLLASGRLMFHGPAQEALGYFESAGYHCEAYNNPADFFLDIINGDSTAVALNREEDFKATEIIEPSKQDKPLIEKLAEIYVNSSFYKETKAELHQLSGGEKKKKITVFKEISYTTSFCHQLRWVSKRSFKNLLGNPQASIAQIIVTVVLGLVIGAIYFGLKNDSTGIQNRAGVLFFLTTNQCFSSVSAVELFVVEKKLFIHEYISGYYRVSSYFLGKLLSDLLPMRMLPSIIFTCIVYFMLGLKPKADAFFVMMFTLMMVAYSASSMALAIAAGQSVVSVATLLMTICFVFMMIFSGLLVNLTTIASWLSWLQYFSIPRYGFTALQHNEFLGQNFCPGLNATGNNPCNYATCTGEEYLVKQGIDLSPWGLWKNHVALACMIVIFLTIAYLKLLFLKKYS

## COc1nc(C(=O)NC[C@](C)(O)C(F)(F)F)c(N)cc1C(F)(F)F (single isomer, unassigned) [Example 5]
ΔF508-CFTR
  EC50: 0.05 µM
COPD patients [1]; [3]
  fibrinogen level, maximum: 4.9 g/L
  fibrinogen level, mean: 3.28 g/L
  fibrinogen level, median: 3.16 g/L
  fibrinogen level, minimum: 2 g/L
COPD patients [1]; D14, 300 mg bid
  fibrinogen level, maximum: 4.4 g/L
  fibrinogen level, mean: 3.1 g/L
  fibrinogen level, median: 3.03 g/L
  fibrinogen level, minimum: 1.6 g/L
  fibrinogen change from baseline, maximum: 1.7
  fibrinogen change from baseline, mean: −0.18
  fibrinogen change from baseline, median: −0.20
  fibrinogen change from baseline, minimum: −1.7
COPD patients [1]; D29, 300 mg bid
  fibrinogen level, maximum: 4.4 g/L
  fibrinogen level, mean: 3.02 g/L
  fibrinogen level, median: 2.98 g/L
  fibrinogen level, minimum: 1.6 g/L
  fibrinogen change from baseline, maximum: 1.3
  fibrinogen change from baseline, mean: −0.24
  fibrinogen change from baseline, median: −0.17
  fibrinogen change from baseline, minimum: −1.8
COPD patients [1]; Day 14 and 29 during treatment period
  mean change from baseline over time for fibrinogen (FIG. 1): decrease of fibrinogen levels
COPD patients [1]; Day 29, 300 mg bid for 28 days, 90% CI −0.65, −0.14, p-value=0.006
  estimated difference (Compound A to placebo) in mean change from baseline fibrinogen: -0.40 g/L
COPD patients [1]; Day 29, p-value=0.006
  Fibrinogen mean improvement over placebo: 40 mg/dL
COPD patients [1]; EOS (Day 56, 28 days after last dose), 300 mg bid
  fibrinogen level, mean: 3.24 g/L
COPD patients [1]; EOS, 300 mg bid
  fibrinogen level, maximum: 6.6 g/L
  fibrinogen level, median: 3.16 g/L
  fibrinogen level, minimum: 2 g/L
  fibrinogen change from baseline, maximum: 3.0
  fibrinogen change from baseline, mean: −0.03
  fibrinogen change from baseline, median: −0.11
  fibrinogen change from baseline, minimum: −1.7
COPD patients [1]; [4]
  fibrinogen level, maximum: 4.9 g/L
  fibrinogen level, mean: 3.03 g/L
  fibrinogen level, median: 3 g/L
  fibrinogen level, minimum: 1.1 g/L
COPD patients [2]; Day 14, COPD patients
  LCI, pre-bronchodilator FEV1 and post-bronchodilator FEV1, mean change from baseline: evidence of improvement
COPD patients [2]; Day 29, 300 mg bid 28 days, COPD patients
  pre- and post-bronchodilator FVC, IC, % FEF25-75 compared to placebo: supportive evidence of improvement
COPD patients [2]; Day 29, 300 mg bid 28 days, COPD, 90% CI −0.02, 0.14, p-value=0.100
  estimated difference (Compound A - placebo) in mean change from baseline post-bronchodilator FEV1: 0.06 L
COPD patients [2]; Day 29, 300 mg bid 28 days, COPD, 90% CrI −0.03, 0.13, 84% probability better than placebo
  posterior difference (Compound A - placebo) in mean change from baseline pre-bronchodilator FEV1: 0.05 L
COPD patients [2]; Day 29, 300 mg bid 28 days, COPD, 90% CrI −0.24, 0.79, 19% probability better than placebo
  posterior difference (Compound A - placebo) in mean change from baseline LCI: 0.28
COPD patients [2]; EOS, 28 days after the last dose, COPD patients
  efficacy results for FEV1, sweat chloride, fibrinogen, spirometry and lung volume measurements: returned to baseline
COPD patients [2]; patients with COPD, four weeks of treatment, listed as Compound A
  lung function (FEV1): significant improvement; also recorded: statistically important improvement
CFTR
  estimated difference (Compound A - placebo) in mean change from baseline sweat chloride: -5.19 mmol/L
Patients with CF
  lung function (FEV1): significant improvement; also recorded: statistically important improvement
BCRP
  inhibition of BCRP: Weak in vitro inhibition
UGT2B7
  inhibition of UGT2B7: Weak in vitro inhibition
